Assay results taken from PMC10974149, “Acheta domesticus: A Natural Source of Anti-Skin-Aging Ingredients for Cosmetic Applications” (Pharmaceuticals, 2024).
In brackets after ≈: the same amount, converted by molar mass.

Target: T1, collagenase from Clostridium histolyticum
T1 construct: gene colG
Assay: spectrophotometric collagenase inhibition assay
Type: biochemical
Conditions: positive control; substrate not stated in the assay section (FALGPA among reagents)
Source text: spectrophotometric collagenase inhibition assay on collagenase from Clostridium histolyticum

## CC1(C)CC[C@]2(C(=O)O)CC[C@]3(C)C(=CC[C@@H]4[C@@]5(C)CC[C@H](O)C(C)(C)[C@@H]5CC[C@]43C)[C@@H]2C1 [OA, Oleanolic acid]
  IC50 (μg/mL) / Collagenase Inhibition: 3 ± 1 µg/mL (≈ 6.57 µM)
